*1 amine or outer side, *2 acyl side, *3 side chain or, on linkers, in order; H or OH if unused. Where a SMILES comes first, the peptide text is derived from it. Side-chain parts run from the residue outwards. The star is where a group is joined. C16 diacid = O=C(O)CCCCCCCCCCCCCCC(=O)*; γGlu = O=C(O)[C@H](CCC(=O)[*:2])N[*:1]; AEEA = NCCOCCOCC(=O)O
Columns and labels:
Type in all cases: cell-based
human GIP receptor [1] = target: T1, human GIP receptor (Homo sapiens, UniProt P48546); test: cAMP accumulation, agonism (DiscoveRx HitHunter cAMP XS assay); parameters: host or cells: COS-7 (transient, calcium phosphate; pCMV-Script vector); settings: COS-7, read-out: cAMP agonism, Emax
T1 sequence (P48546 22-466): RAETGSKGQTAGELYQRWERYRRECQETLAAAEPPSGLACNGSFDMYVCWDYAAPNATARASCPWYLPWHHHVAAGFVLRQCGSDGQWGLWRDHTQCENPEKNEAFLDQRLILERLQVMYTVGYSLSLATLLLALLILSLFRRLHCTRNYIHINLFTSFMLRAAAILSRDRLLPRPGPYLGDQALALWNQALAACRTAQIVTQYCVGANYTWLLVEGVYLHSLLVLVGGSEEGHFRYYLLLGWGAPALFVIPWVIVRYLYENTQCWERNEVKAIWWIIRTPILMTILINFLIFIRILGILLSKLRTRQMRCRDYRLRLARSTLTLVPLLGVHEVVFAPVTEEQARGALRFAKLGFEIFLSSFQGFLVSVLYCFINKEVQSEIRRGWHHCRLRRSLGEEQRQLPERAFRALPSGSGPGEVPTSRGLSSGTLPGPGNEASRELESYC
Procedure, shortened: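 cAMP accumulation measured by HitHunter cAMP XS in COS-7 cells transiently expressing human GIP receptor, after 30 min in HBS with 1 mM IBMX at 37 °C. Antagonists preincubated 10 min before GIP giving 50-80% of maximum, then 20 min more; agonist mode used 30 min ligand exposure.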

human GIP receptor [2] = target: T1, human GIP receptor; test: cAMP antagonism (CisBio cAMP Dynamic 2 HTRF assay); parameters: pCMV-Script vector
Procedure, shortened: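 Four-parameter fits of cAMP dose-response gave pIC50. cAMP fall was quantified by HTRF competition, ratio 665/620 nm after 60 min at room temperature, against a cAMP standard curve.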

human GIP receptor [3] = target: T1, human GIP receptor; test: cAMP agonism (CisBio cAMP Dynamic 2 HTRF assay); settings: HEK293, read-out: cAMP agonism, % Efficacy, Table 1C, HEK-293 cells
Method: To test for agonistic properties at the GIP receptor, compounds were diluted and added to cells as described above and incubated for 30 min at 37° C. The resulting increase in intracellular cAMP was determined using the CisBio cAMP Dynamic 2 HTRF Assay Kit as described above.

GLP2 receptor (GLP2R) = target: T2, GLP2 receptor (GLP2R) (Homo sapiens, UniProt O95838); test: cAMP assay - selectivity, antagonism at GLP2 receptor; settings: Table 3B; COS-7 cells; agonist GLP2
T2 construct: expressed in transfected cells; host or cells: COS-7 (transient)
T2 sequence (O95838 1-553): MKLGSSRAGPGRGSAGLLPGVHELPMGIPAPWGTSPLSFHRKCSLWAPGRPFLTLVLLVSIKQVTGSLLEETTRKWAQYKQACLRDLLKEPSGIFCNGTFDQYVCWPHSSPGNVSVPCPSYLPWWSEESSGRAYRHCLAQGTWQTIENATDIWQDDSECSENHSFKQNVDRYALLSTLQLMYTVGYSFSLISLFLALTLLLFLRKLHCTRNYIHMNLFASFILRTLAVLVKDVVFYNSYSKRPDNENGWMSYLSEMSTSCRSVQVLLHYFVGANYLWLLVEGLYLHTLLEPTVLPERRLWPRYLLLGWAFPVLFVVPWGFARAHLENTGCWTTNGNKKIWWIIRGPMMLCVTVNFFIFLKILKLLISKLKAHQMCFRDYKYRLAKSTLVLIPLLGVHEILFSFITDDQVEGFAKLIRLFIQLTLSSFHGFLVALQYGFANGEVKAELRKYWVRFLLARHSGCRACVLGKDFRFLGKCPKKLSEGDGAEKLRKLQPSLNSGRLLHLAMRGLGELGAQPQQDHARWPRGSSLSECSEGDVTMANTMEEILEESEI
Method: (§1) Transient transfected COS-7 cells expressing the either of the GLP1 receptor (GLP1R), GLP2 receptor (GLP2R), glucagon receptor (GcgR) or secretin receptor (SCTR) were seeded in white 96-well plates with a density of 3.5*10^4/well. The day after, the cells were washed twice with Hepes buffered saline (HBS) buffer and incubated with HBS and 1 mM 3-isobutyl-1-methylxanthine (IBMX) for 30 min at 37° C. To test for agonistic properties, ligands were added and incubated for 30 min at 37° C. In order to test for antagonistic properties, the cells were preincubated with the antagonists for 10 min prior to the addition the natural agonist for the expressed receptor (GLP1 for GLP1R expressing cells, GLP2 for GLP2R expressing cells, glucagon for the GcgR and secretin for the SCTR) and subsequent incubated for 20 additional min. […] The HitHunter™ cAMP XS assay (DiscoveRx) was carried out according to the manufacturer's instructions.

human GIP receptor [4] = target: T1, human GIP receptor; test: cAMP accumulation, antagonism (DiscoveRx HitHunter cAMP XS assay); parameters: host or cells: COS-7 (transient, calcium phosphate; pCMV-Script vector)
Procedure, shortened: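 Transiently transfected COS-7 cells expressing human GIP receptor, pretreated with 1 mM IBMX in HBS 30 min at 37 °C. Agonism: ligand 30 min at 37 °C; antagonism: 10 min antagonist preincubation, then GIP at 50-80% maximal response for 20 min. cAMP measured by HitHunter cAMP XS.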

secretin receptor (SCTR) = target: T3, secretin receptor (SCTR) (Homo sapiens, UniProt P47872); test: cAMP assay - selectivity, antagonism at secretin receptor; settings: Table 3B; COS-7 cells; agonist secretin
T3 construct: expressed in transfected cells; host or cells: COS-7 (transient)
Method: as §1

GLP1 receptor (GLP1R) = target: T4, GLP1 receptor (GLP1R) (Homo sapiens, UniProt P43220); test: cAMP assay - selectivity, antagonism at GLP1 receptor; settings: Table 3A; for GLP-1R, Antagonism, %inhib: COS-7 cells; for GLP-1R, Antagonism, index: selectivity index versus GIPR
T4 construct: expressed in transfected cells; host or cells: COS-7 (transient)
Method: as §1

glucagon receptor (GcgR) = target: T5, glucagon receptor (GcgR) (Homo sapiens, UniProt P47871); test: cAMP assay - selectivity, antagonism at glucagon receptor; settings: Table 3A; COS-7 cells; agonist glucagon at 50-80% of maximal cAMP
T5 construct: expressed in transfected cells; host or cells: COS-7 (transient)
Method: as §1

[5] = GIPR, Antagonism, nM, Table 3C, CisBio assay
[6] = Table 1C, CisBio, HEK-293 cells
[7] = cAMP antagonism, nM (IC50), Table 1C, CisBio, HEK-293 cells, agonist GIP1-42 at EC50

T4 sequence (P43220 24-463, species assumed): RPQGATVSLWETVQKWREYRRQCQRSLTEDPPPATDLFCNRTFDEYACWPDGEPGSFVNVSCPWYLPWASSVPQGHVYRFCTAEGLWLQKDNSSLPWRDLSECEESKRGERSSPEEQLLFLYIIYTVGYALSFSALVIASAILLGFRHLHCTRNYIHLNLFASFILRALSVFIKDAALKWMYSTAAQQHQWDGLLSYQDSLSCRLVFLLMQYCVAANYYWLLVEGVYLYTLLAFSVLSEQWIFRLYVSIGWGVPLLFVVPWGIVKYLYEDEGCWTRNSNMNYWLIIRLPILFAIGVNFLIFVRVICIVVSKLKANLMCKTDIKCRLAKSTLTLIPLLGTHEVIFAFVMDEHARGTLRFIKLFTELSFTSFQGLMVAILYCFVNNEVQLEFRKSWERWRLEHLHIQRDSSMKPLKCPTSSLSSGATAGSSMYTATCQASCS
T5 sequence (P47871 26-477, species assumed): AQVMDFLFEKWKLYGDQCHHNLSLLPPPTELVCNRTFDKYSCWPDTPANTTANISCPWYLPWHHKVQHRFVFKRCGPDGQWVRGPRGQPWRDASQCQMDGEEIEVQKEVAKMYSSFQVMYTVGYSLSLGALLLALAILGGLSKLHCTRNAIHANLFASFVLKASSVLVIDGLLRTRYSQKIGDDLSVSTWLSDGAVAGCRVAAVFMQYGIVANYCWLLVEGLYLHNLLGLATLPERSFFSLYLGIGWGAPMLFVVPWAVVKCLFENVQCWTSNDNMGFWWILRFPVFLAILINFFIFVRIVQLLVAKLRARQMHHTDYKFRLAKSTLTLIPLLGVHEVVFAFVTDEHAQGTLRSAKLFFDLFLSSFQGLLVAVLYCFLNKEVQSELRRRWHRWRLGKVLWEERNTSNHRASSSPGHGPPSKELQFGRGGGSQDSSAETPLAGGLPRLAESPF
T3 sequence (P47872 23-440, species assumed): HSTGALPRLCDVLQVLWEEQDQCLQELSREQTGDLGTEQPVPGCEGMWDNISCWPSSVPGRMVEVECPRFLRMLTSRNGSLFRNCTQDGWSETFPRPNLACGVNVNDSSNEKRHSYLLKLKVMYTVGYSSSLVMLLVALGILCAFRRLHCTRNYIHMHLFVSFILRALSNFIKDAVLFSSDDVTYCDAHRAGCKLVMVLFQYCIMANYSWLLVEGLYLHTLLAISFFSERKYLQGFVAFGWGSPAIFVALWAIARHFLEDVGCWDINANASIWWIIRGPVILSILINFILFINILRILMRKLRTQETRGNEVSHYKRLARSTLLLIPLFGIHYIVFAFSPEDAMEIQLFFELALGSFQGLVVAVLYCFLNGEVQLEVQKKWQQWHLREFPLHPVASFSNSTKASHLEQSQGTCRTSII

| SMILES | Emax (human GIP receptor [1]) [%] | IC50 (human GIP receptor [2]; [5]) [nM] | cAMP antagonism, % inhib (human GIP receptor [2]; [6]) [%] | GIPR, Antagonism, % inhib (human GIP receptor [2]; Table 3C, CisBio assay) [%] | IC50 (human GIP receptor [2]; [7]) [nM] | Emax (human GIP receptor [3]) [%] | GLP-2R, Antagonism (GLP2 receptor (GLP2R)) | IC50 (human GIP receptor [4]; cAMP antagonism, nM (IC50), Table 1B, DiscoveRx, transiently transfected COS-7 cells) [nM] | Secretin R, Antagonism (secretin receptor (SCTR)) | GLP-1R, Antagonism, %inhib (GLP1 receptor (GLP1R)) [%] | GLP-1R, Antagonism, index (GLP1 receptor (GLP1R)) | Glucagon R, Antagonism, nM (glucagon receptor (GcgR)) | IC50 (human GIP receptor [4]; GIPR, Antagonism, nM, Table 3A/3B, DiscoveRx, COS-7 cells) [nM] | IC50 (human GIP receptor [4]; IC50-value (GIPR antagonism), Examples 1 and 2, values of Tables 1B and 2) [nM] | cAMP antagonism, % inhib (human GIP receptor [4]; Table 2, truncated GIP antagonists) [%] | GIPR, Antagonism, % inhib (human GIP receptor [4]; Table 3A/3B, DiscoveRx, COS-7 cells) [%] | IC50 (human GIP receptor [4]; cAMP antagonism, nM (IC50), Table 2, truncated GIP antagonists) [nM] |
| --- | --- | --- | --- | --- | --- | --- | --- | --- | --- | --- | --- | --- | --- | --- | --- | --- | --- |
| CC[C@H](C)[C@H](NC(=O)[C@H](CO)NC(=O)[C@H](Cc1ccc(O)cc1)NC(=O)[C@H](CC(=O)O)NC(=O)[C@H](CO)NC(=O)[C@@H](NC(=O)[C@H](Cc1ccccc1)NC(=O)[C@@H](NC(=O)CNC(=O)[C@@H](N)CO)[C@@H](C)O)[C@@H](C)CC)C(=O)N[C@@H](C)C(=O)N[C@@H](CCSC)C(=O)N[C@@H](CC(=O)O)C(=O)N[C@@H](CCCNC(=N)N)C(=O)N[C@H](C(=O)N[C@@H](CCCCNC(=O)COCCOCCNC(=O)COCCOCCNC(=O)CC[C@H](NC(=O)CCCCCCCCCCCCCCC(=O)O)C(=O)O)C(=O)N[C@@H](CCC(N)=O)C(=O)N[C@@H](CCC(N)=O)C(=O)N[C@@H](CC(=O)O)C(=O)N[C@@H](Cc1ccccc1)C(=O)N[C@H](C(=O)N[C@@H](CC(N)=O)C(=O)N[C@@H](Cc1c[nH]c2ccccc12)C(=O)N[C@@H](CC(C)C)C(=O)N[C@@H](CC(C)C)C(=O)N[C@@H](C)C(=O)N[C@@H](CCC(N)=O)C(=O)N[C@@H](CCCNC(=N)N)C(=O)O)C(C)C)[C@@H](C)CC [AT277] (H-SGTFISDYSIAMDRIK([AEEA-AEEA-γGlu-C16 diacid])QQDFVNWLLAQR-OH; N-terminus assumed) | 9 | 31.6 | 84 | 84 | 31.6 | 8 | No antagonism | 16 | No antagonism | 68 | 561 | No antagonism | – | – | – | – | – |
| CC[C@H](C)[C@H](NC(=O)[C@H](CO)NC(=O)[C@H](Cc1ccc(O)cc1)NC(=O)[C@H](CC(=O)O)NC(=O)[C@H](CO)NC(=O)[C@@H](NC(=O)[C@@H](N)Cc1ccccc1)[C@@H](C)CC)C(=O)N[C@@H](C)C(=O)N[C@@H](CCSC)C(=O)N[C@@H](CC(=O)O)C(=O)N[C@@H](CCCCN)C(=O)N[C@H](C(=O)N[C@@H](CCCCNC(=O)CCCCCCCCCCCCCCC(=O)O)C(=O)N[C@@H](CCC(N)=O)C(=O)N[C@@H](CCC(N)=O)C(=O)N[C@@H](CC(=O)O)C(=O)N[C@@H](Cc1ccccc1)C(=O)N[C@H](C(=O)N[C@@H](CC(N)=O)C(=O)N[C@@H](Cc1c[nH]c2ccccc12)C(=O)N[C@@H](CC(C)C)C(=O)N[C@@H](CC(C)C)C(=O)N[C@@H](C)C(=O)N[C@@H](CCC(N)=O)C(=O)N[C@@H](CCCCN)C(N)=O)C(C)C)[C@@H](C)CC [AT353] (H-FISDYSIAMDKIK(C16 diacid)QQDFVNWLLAQK-NH2; N-terminus assumed) | – | 25.1 | 90 | 90 | 25.1 | 0 | No antagonism | – | No antagonism | 43 | 44 | No antagonism | 9 | 9 | 100.0 | 100.0 | 9 |

— patent publication US12187773B2, “Modified GIP peptide analogues” (Antag Therapeutics ApS, priority 2018, dated 2025)
